The source of these data is patent publication US20250236610A1, “3-[(1H-PYRAZOL-4-YL)OXY]PYRAZIN-2-AMINE COMPOUNDS AS HPK1 INHIBITOR AND USE THEREOF” (BeiGene, Ltd., priority 2020, published 2025).

In test [1] the target is HPK1 kinase (aa1-346, Life Technologies) (Homo sapiens (Human), UniProt Q92918). Nature of the test: HPK Kinase Activity Assay at 1 mM ATP (TR-FRET). Format: biochemical. Particulars: HPK1 kinase 40 nM, 0.5 μM STK1 substrate, read-out: Enzymatic activity IC50.
The test system of test [2] is pSLP76(S376) level in Jurkat cell line. Nature of the test: Cellular pSLP76(S376) HTRF Assay. Format: cell-based. To be noted: Homo sapiens, Jurkat cells, 2 h compound treatment, 0.05 μg/mL anti-human CD3 (OKT3) 30 min. A general note: Time-resolved FRET reads energy transfer from a long-lived donor to a nearby acceptor.

HPK1 kinase (aa1-346, Life Technologies), sequence (Q92918 1-346): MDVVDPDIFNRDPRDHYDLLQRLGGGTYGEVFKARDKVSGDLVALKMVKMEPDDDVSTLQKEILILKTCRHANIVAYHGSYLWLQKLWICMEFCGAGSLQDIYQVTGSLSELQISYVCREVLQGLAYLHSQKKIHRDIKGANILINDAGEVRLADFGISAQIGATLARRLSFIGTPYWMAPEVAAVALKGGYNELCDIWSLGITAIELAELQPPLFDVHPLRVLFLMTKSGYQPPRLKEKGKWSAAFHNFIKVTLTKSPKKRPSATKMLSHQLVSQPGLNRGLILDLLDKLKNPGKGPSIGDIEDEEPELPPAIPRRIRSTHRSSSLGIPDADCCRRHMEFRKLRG

Regarding `C[C@@H]1COCCN1c1cc(-c2cnc(N)c(Oc3cnn(C4CCN(C)CC4)c3)n2)cc([C@]2(O)CCO[C@H]2C)c1` (single isomer, unassigned) [Example A95B], the IC50 in test [1] was found to be 4.5 nM; in test [2] it was 68 nM.
For `C[C@@H]1COCCN1c1cc(-c2cnc(N)c(Oc3cnn(C4CCN(C)CC4)c3)n2)cc([C@@]2(O)CCO[C@@H]2C)c1` (single isomer, unassigned) [Example A95A], in test [1], the IC50 amounted to 44 nM.

For orientation: IC50 means the midpoint of a concentration-inhibition curve.
